Test results taken from patent publication US6410792B1, “Amide derivatives and methods for using the same as selective neuropeptide Y receptor antagonists” (Bayer Corporation, priority 1997, dated 2002).
Structures can show the parent of a compound that is named as a salt. Where two headings read alike, the source gives them in different places.

Key:
Human NPY5 receptor = target: T1, Human NPY5 receptor (Homo sapiens, UniProt Q15761); assay: Human NPY5 receptor binding assay ([125I]PYY, membrane protein); conditions: read-out: hNPY5 IC50
T1 sequence (Q15761 1-445): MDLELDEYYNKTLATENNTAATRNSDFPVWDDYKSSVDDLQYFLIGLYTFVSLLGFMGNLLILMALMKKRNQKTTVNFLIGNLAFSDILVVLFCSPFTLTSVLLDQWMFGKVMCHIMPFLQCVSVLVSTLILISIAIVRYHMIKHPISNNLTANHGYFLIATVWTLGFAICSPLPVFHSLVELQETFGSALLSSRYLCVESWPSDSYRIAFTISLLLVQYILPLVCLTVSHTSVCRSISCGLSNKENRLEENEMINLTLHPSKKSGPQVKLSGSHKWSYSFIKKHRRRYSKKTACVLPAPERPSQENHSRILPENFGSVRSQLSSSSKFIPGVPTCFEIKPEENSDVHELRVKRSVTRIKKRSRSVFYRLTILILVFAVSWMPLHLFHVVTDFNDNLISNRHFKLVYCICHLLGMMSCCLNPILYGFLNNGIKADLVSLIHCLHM
How it was run: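 First, membrane protein, drug dilution and 75-100 pM [125I]PYY were combined in pH 7.4 Tris saline buffer containing divalent cations and 0.1% BSA. Next, samples were mixed 2 hours at room temperature. Finally, samples were filtered, washed ice-cold and counted; 1 μM PYY gave nonspecific binding.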

Rat NPY5 receptor = target: T2, Rat NPY5 receptor (Rattus norvegicus, UniProt Q63634); assay: Rat NPY5 receptor binding assay ([125I]PYY, membrane protein)
T2 sequence (Q63634 1-445): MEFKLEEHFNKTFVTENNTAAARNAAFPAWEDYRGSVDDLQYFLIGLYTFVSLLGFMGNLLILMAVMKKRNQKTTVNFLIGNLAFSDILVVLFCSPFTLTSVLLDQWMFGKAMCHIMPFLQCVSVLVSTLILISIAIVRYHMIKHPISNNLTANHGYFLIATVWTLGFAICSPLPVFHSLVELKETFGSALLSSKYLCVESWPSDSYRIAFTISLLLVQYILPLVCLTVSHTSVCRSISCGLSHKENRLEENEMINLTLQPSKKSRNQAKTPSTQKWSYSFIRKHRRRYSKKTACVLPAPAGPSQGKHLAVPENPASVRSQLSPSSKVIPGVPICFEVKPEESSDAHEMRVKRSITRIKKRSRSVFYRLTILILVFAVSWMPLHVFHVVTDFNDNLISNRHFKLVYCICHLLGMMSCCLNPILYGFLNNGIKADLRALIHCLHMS
Procedure: C. Human and Rat NPY5 Receptor Binding Assays
Binding assays are performed on GF/C Millipore 96well plates pretreated with 0.02% polyethylenimine. The binding buffer is 25 mM Tris, 120 mM NaCl, 5 mM KCl, 1.2 mM KH2PO4, 2.5 mM CaCl2, 1.2 mM MgSO4, 0.1% BSA and 0.5 mg/ml bacitracin, pH 7.4. Samples consist of membrane protein, 75-100 pM [125I]PYY (porcine, NEN-DuPont) and drug dilution. Nonspecific binding is defined by 1 μM PYY. After a 2 hour incubation at room temperature with constant mixing, the samples are aspirated on a vacuum manifold, and rinsed with ice-cold binding buffer. The amount of radioactivity in each well is quantitated with either gamma counting or liquid scintillation.

[1] = [125I]PYY binding, read-out: rNPY5 IC50
[2] = [125I]PYY, read-out: rNPY5 IC50

CC(C)(C)OC(=O)NC1CCN(CC(=O)Nc2ccc(C3CCCCC3)cc2)C1 (stereo not drawn) [Compound 194, {1-[(4-Cyclohexyl-phenylcarbamoyl)-methyl]-pyrrolidin-3-yl}-carbamic acid tert-butyl ester] was tested, and the IC50 (Human NPY5 receptor; [125I]PYY binding) was 37 nM and the IC50 (Rat NPY5 receptor; [1]) was 35 nM.
With CC(C)(C)OC(=O)NC1CCN(CC(=O)Nc2ccc(C3CCCCC3)cc2)C1 (stereo not drawn) [Compound 195, {1-[(4-Cyclohexyl-phenylcarbamoyl)-methyl]-pyrrolidin-3-yl}-carbamic acid tert-butyl ester] the IC50 (Human NPY5 receptor; [125I]PYY binding) was 26 nM and the IC50 (Rat NPY5 receptor; [1]) was 26 nM.
For CNC1CCN(CC(=O)Nc2ccc(C3CCCCC3)cc2)C1 (stereo not drawn) [Compound 198, N-(4-Cyclohexyl-phenyl)-2-(3-methylamino-pyrrolidin-1-yl)-acetamide], the IC50 (Human NPY5 receptor; [125I]PYY binding) was 1000 nM and the IC50 (Rat NPY5 receptor; [1]) was 1300 nM.
In the case of CCNC1CCN(CC(=O)Nc2ccc(C3CCCCC3)cc2)C1 (stereo not drawn) [Compound 199, N-(4-Cyclohexyl-phenyl)-2-(3-ethylamino-pyrrolidin-1-yl)-acetamide], the IC50 (Human NPY5 receptor; [125I]PYY binding) is reported as 820 nM and the IC50 (Rat NPY5 receptor; [1]) is reported as 2400 nM.
Compound O=C(CN1CCC(CO)CC1)Nc1ccc(C2CCCCC2)cc1 [Compound 200, N-(4-Cyclohexyl-phenyl)-2-(4-hydroxymethyl-piperidin-1-yl)-acetamide] has an IC50 (Human NPY5 receptor; [125I]PYY binding) of 530 nM and an IC50 (Rat NPY5 receptor; [1]) of 340 nM.
Compound COc1cc(CCNCC(=O)Nc2ccc(C(=O)c3ccccc3)cc2)ccc1O [Compound 202, N-(4-Benzoyl-phenyl)-2-[2-(4-hydroxy-3-methoxy-phenyl)-ethylamino]-acetamide] has an IC50 (Human NPY5 receptor; [125I]PYY binding) of 58 nM and an IC50 (Rat NPY5 receptor; [1]) of 53 nM.
CNC1CCN(CC(=O)Nc2ccc(C(=O)c3ccccc3)cc2)C1 (stereo not drawn) [Compound 203, N-(4-Benzoyl-phenyl)-2-(3-methylamino-pyrrolidin-1-yl)-acetamide] showed an IC50 (Human NPY5 receptor; [125I]PYY binding) of 200 nM and an IC50 (Rat NPY5 receptor; [1]) of 180 nM.
For CC(C)(C)OC(=O)NC1CCN(CC(=O)Nc2ccc(C(=O)c3ccccc3)cc2)C1 (stereo not drawn) [Compound 205, {1-[(4-Benzoyl-phenylcarbamoyl)-methyl]-pyrrolidin-3-yl}-carbamic acid tert-butyl ester], the IC50 (Human NPY5 receptor; [125I]PYY binding) was 72 nM and the IC50 (Rat NPY5 receptor; [1]) was 71 nM.
CCNC1CCN(CC(=O)Nc2ccc(C(=O)c3ccccc3)cc2)C1 (stereo not drawn) [Compound 206, N-(4-Benzoyl-phenyl)-2-(3-ethylamino-pyrrolidin-1-yl)-acetamide] showed an IC50 (Human NPY5 receptor; [125I]PYY binding) of 42 nM and an IC50 (Rat NPY5 receptor; [1]) of 48 nM.
With O=C(CN1CCC(NC(=O)C(F)(F)F)C1)Nc1ccc(C(=O)c2ccccc2)cc1 (stereo not drawn) [Compound 207] the IC50 (Human NPY5 receptor; [125I]PYY binding) was 48 nM and the IC50 (Rat NPY5 receptor; [1]) was 50 nM.
With N#CCNCC(=O)Nc1ccc(C(=O)c2ccccc2)cc1 [Compound 211, N-(4-Benzoyl-phenyl)-2-(cyanomethyl-amino)-acetamide] the IC50 (Human NPY5 receptor; [125I]PYY binding) was 1300 nM and the IC50 (Rat NPY5 receptor; [1]) was 1000 nM.
In the case of O=C(CNCc1ccc(C(=O)O)cc1)Nc1ccc(C2CCCCC2)cc1 [Compound 212], the IC50 (Human NPY5 receptor; [125I]PYY binding) is reported as > 10000 nM and the IC50 (Rat NPY5 receptor; [1]) is reported as > 10000 nM.
For C#CC(C)(C)NCC(=O)Nc1ccc(C2CCCCC2)cc1 [Compound 213, N-(4-Cyclohexyl-phenyl)-2-(1,1-dimethyl-prop-2-ynylamino)-acetamide], the IC50 (Human NPY5 receptor; [125I]PYY binding) was 360 nM and the IC50 (Rat NPY5 receptor; [1]) was 360 nM.
Work on CN(C(=O)OC(C)(C)C)C1CCN(CC(=O)Nc2ccc(C3CCCCC3)cc2)C1 (stereo not drawn) [Compound 215, {1-[(4-Cyclohexyl-phenylcarbamoyl)-methyl]-pyrrolidin-3-yl)-methyl-carbamic acid tert-butyl ester] yielded an IC50 (Human NPY5 receptor; [125I]PYY binding) of 170 nM and an IC50 (Rat NPY5 receptor; [1]) of 300 nM.
CCCC(CO)NCC(=O)Nc1ccc(C2CCCCC2)cc1 (stereo not drawn) [Compound 216, N-(4-Cyclohexyl-phenyl)-2-(1-hydroxymethyl-butylamino)-acetamide] was tested, and the IC50 (Human NPY5 receptor; [125I]PYY binding) was 450 nM and the IC50 (Rat NPY5 receptor; [1]) was > 10000 nM.
In the case of C=CCC(NCC(=O)Nc1ccc(C2CCCCC2)cc1)C(=O)O (stereo not drawn) [Compound 220, 2-{[(4-Cyclohexyl-phenylcarbamoyl)-methyl]-amino}-pent-4-enoic acid], the IC50 (Human NPY5 receptor; [125I]PYY binding) is reported as 540 nM and the IC50 (Rat NPY5 receptor; [1]) is reported as 720 nM.
In the case of CC(=O)OC1CC2CC1N(CC(=O)Nc1ccc(C3CCCCC3)cc1)C2 (stereo not drawn) [Compound 221, Acetic acid 2-[(4-cyclohexyl-phenylcarbamoyl)-methyl]-2-aza-bicyclo[2.2.1]hept-6-yl ester], the IC50 (Human NPY5 receptor; [125I]PYY binding) is reported as 29 nM and the IC50 (Rat NPY5 receptor; [1]) is reported as 29 nM.
For O=C(CNCc1ccc(C(=O)O)cc1)Nc1ccc(C(=O)c2ccccc2)cc1 [Compound 222, 4-({[(4-Benzoyl-phenylcarbamoyl)-methyl]-amino}-methyl)-benzoic acid], the IC50 (Human NPY5 receptor; [125I]PYY binding) was > 10000 nM and the IC50 (Rat NPY5 receptor; [1]) was > 10000 nM.
In the case of C#CC(C)(C)NCC(=O)Nc1ccc(C(=O)c2ccccc2)cc1 [Compound 223, N-(4-Benzoyl-phenyl)-2-(1,1-dimethyl-prop-2-ynylamino)-acetamide], the IC50 (Human NPY5 receptor; [125I]PYY binding) is reported as 540 nM and the IC50 (Rat NPY5 receptor; [1]) is reported as 1400 nM.
With CN(C(=O)OC(C)(C)C)C1CCN(CC(=O)Nc2ccc(C(=O)c3ccccc3)cc2)C1 (stereo not drawn) [Compound 225, {1-[(4-Benzoyl-phenylcarbamoyl)-methyl]-pyrrolidin-3-yl)-methyl-carbamic acid tert-butyl ester] the IC50 (Human NPY5 receptor; [125I]PYY binding) was 320 nM and the IC50 (Rat NPY5 receptor; [1]) was 190 nM.
For C=CCC(NCC(=O)Nc1ccc(C(=O)c2ccccc2)cc1)C(=O)O (stereo not drawn) [Compound 230, 2-{[(4-Benzoyl-phenylcarbamoyl)-methyl]-amino}-pent-4-enoic acid], the IC50 (Human NPY5 receptor; [125I]PYY binding) was 810 nM and the IC50 (Rat NPY5 receptor; [1]) was 2500 nM.
Work on CC(=O)OC1CC2CC1N(CC(=O)Nc1ccc(C(=O)c3ccccc3)cc1)C2 (stereo not drawn) [Compound 231, Acetic acid 2-[(4-benzoyl-phenylcarbamoyl)-methyl]-2-aza-bicyclo[2.2.1]hept-6-yl ester] yielded an IC50 (Human NPY5 receptor; [125I]PYY binding) of 67 nM and an IC50 (Rat NPY5 receptor; [1]) of 74 nM.
O=C(CNCCCn1ccnc1)Nc1ccc(C2CCCCC2)cc1 [Compound 234, N-(4-Cyclohexyl-phenyl)-2-(3-imidazol-1-yl-propylamino)-acetamide] showed an IC50 (Human NPY5 receptor; [125I]PYY binding) of 950 nM and an IC50 (Rat NPY5 receptor; [1]) of 610 nM.
Compound C=CCNCC(=O)Nc1ccc(C2CCCCC2)cc1 [Compound 235, 2-Allylamino-N-(4-cyclohexyl-phenyl)-acetamide] has an IC50 (Human NPY5 receptor; [125I]PYY binding) of 1600 nM and an IC50 (Rat NPY5 receptor; [1]) of 3800 nM.
Work on CC(=CC#N)NCC(=O)Nc1ccc(C2CCCCC2)cc1 [Compound 237, 2-(2-Cyano-1-methyl-vinylamino)-N-(4-cyclohexyl-phenyl)-acetamide] yielded an IC50 (Human NPY5 receptor; [125I]PYY binding) of 4400 nM and an IC50 (Rat NPY5 receptor; [1]) of 1000 nM.
COC(=O)C=C(C)NCC(=O)Nc1ccc(C2CCCCC2)cc1 [Compound 238, 3-{[(4-Cyclohexyl-phenylcarbamoyl)-methyl]-amino}-but-2-enoic acid methyl ester] gave an IC50 (Human NPY5 receptor; [125I]PYY binding) of 650 nM and an IC50 (Rat NPY5 receptor; [1]) of 550 nM.
Work on COC(CNCC(=O)Nc1ccc(C2CCCCC2)cc1)OC [Compound 241, N-(4-Cyclohexyl-phenyl)-2-(2,2-dimethoxy-ethylamino)-acetamide] yielded an IC50 (Human NPY5 receptor; [125I]PYY binding) of 280 nM and an IC50 (Rat NPY5 receptor; [1]) of 230 nM.
For O=C(CNC1CCC1)Nc1ccc(C(=O)c2ccccc2)cc1 [Compound 242, N-(4-Benzoyl-phenyl)-2-cyclobutylamino-acetamide], the IC50 (Human NPY5 receptor; [125I]PYY binding) was 4400 nM and the IC50 (Rat NPY5 receptor; [1]) was 5000 nM.
Compound O=C(CNCCCn1ccnc1)Nc1ccc(C(=O)c2ccccc2)cc1 [Compound 244, N-(4-Benzoyl-phenyl)-2-(3-imidazol-1-yl-propylamino)-acetamide] has an IC50 (Human NPY5 receptor; [125I]PYY binding) of 670 nM and an IC50 (Rat NPY5 receptor; [1]) of 3000 nM.
Compound CCN(CC)CCCC(C)NCC(=O)Nc1ccc(C(=O)c2ccccc2)cc1 (stereo not drawn) [Compound 246, N-(4-Benzoyl-phenyl)-2-(4-diethylamino-1-methyl-butylamino)-acetamide] has an IC50 (Human NPY5 receptor; [125I]PYY) of 1600 nM and an IC50 (Rat NPY5 receptor; [2]) of 1700 nM.
Compound O=C(CN1CCC(O)(Cc2ccccc2)CC1)Nc1ccc(-c2ccccc2)cc1 [Compound 315, 2-(4-Benzyl-4-hydroxy-piperidin-1-yl)-N-biphenyl-4-yl-acetamide; hydrochloride] has an IC50 (Human NPY5 receptor; [125I]PYY) of 800 nM and an IC50 (Rat NPY5 receptor; [2]) of 2000 nM.
CCC(=O)C1(c2ccccc2)CCN(CC(=O)Nc2ccc(-c3ccccc3)cc2)CC1 [Compound 317, N-Biphenyl-4-yl-2-(4-phenyl-4-propionyl-piperidin-1-yl)-acetamide: hydrochloride] showed an IC50 (Human NPY5 receptor; [125I]PYY) of 10 nM and an IC50 (Rat NPY5 receptor; rNPY5 IC50, [125I]PYY) of 11 nM.
“N-(4-Cyclohexyl-phenyl)-2-(3-ethylamino-pyrrolidin-1-yl)-acetamide [Compound 196]” showed an IC50 (Human NPY5 receptor; [125I]PYY binding) of 43 nM and an IC50 (Rat NPY5 receptor; [1]) of 49 nM.
